Results from PubChem BioAssay (NCI).
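Abbreviation: GI50, concentration required for 50% inhibition of growth. TGI denotes the concentration required for complete inhibition of growth.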

Columns and labels:
Assay in all cases: NCI tumour cell line growth inhibition, 384-well format
SNB-19 CNS = test system: SNB-19 CNS
IGROV1 ovarian = test system: IGROV1 ovarian
K-562 leukemia = test system: K-562 leukemia
SF-295 CNS = test system: SF-295 CNS
MDA-MB-231 breast = test system: MDA-MB-231 breast
CCRF-CEM leukemia = test system: CCRF-CEM leukemia
SK-MEL-28 melanoma = test system: SK-MEL-28 melanoma
MCF7 breast = test system: MCF7 breast
SF-539 CNS = test system: SF-539 CNS
MDA-MB-468 breast = test system: MDA-MB-468 breast
HOP-92 NSCLC = test system: HOP-92 NSCLC
UACC-257 melanoma = test system: UACC-257 melanoma
SN12C renal = test system: SN12C renal
RXF 393 renal = test system: RXF 393 renal
NCI-H23 lung = test system: NCI-H23 lung
DU-145 prostate = test system: DU-145 prostate
OVCAR-5 ovarian = test system: OVCAR-5 ovarian
OVCAR-4 ovarian = test system: OVCAR-4 ovarian
HCT-15 colon = test system: HCT-15 colon
NCI/ADR-RES ovarian = test system: NCI/ADR-RES ovarian
MALME-3M melanoma = test system: MALME-3M melanoma
KM12 colon = test system: KM12 colon
UACC-62 melanoma = test system: UACC-62 melanoma
SW-620 colon = test system: SW-620 colon
UO-31 renal = test system: UO-31 renal
COLO 205 colon = test system: COLO 205 colon
HS 578T breast = test system: HS 578T breast
A498 renal = test system: A498 renal
SF-268 CNS = test system: SF-268 CNS
OVCAR-3 ovarian = test system: OVCAR-3 ovarian
HCC-2998 colon = test system: HCC-2998 colon
OVCAR-8 ovarian = test system: OVCAR-8 ovarian
LOX IMVI melanoma = test system: LOX IMVI melanoma
HCT-116 colon = test system: HCT-116 colon
TK-10 renal = test system: TK-10 renal
ACHN renal = test system: ACHN renal
MOLT-4 leukemia = test system: MOLT-4 leukemia
PC-3 prostate = test system: PC-3 prostate
BT-549 breast = test system: BT-549 breast
SNB-75 CNS = test system: SNB-75 CNS
NCI-H226 lung = test system: NCI-H226 lung
HT29 colon = test system: HT29 colon
A549 NSCLC = test system: A549 NSCLC
HOP-62 NSCLC = test system: HOP-62 NSCLC
SK-OV-3 ovarian = test system: SK-OV-3 ovarian
NCI-H322M lung = test system: NCI-H322M lung

Compound: COc1cc(Nc2ncc3c(n2)-c2ccc(Cl)cc2C(c2c(F)cccc2OC)=NC3)ccc1C(=O)O
- GI50 (SNB-19 CNS): 9.37 µM
- TGI (SNB-19 CNS): 61.9 µM
- GI50 (IGROV1 ovarian): 0.743 µM
- TGI (IGROV1 ovarian): 13.5 µM
- GI50 (K-562 leukemia): 0.0367 µM
- TGI (K-562 leukemia): 11.5 µM
- GI50 (SF-295 CNS): 0.088 µM
- TGI (SF-295 CNS): 24.6 µM
- GI50 (MDA-MB-231 breast): 2.72 µM
- TGI (MDA-MB-231 breast): 23.6 µM
- GI50 (CCRF-CEM leukemia): 0.0192 µM
- TGI (CCRF-CEM leukemia): 0.0773 µM
- GI50 (SK-MEL-28 melanoma): 13.2 µM
- TGI (SK-MEL-28 melanoma): 51.7 µM
- GI50 (MCF7 breast): 1.7 µM
- TGI (MCF7 breast): > 100 µM
- GI50 (SF-539 CNS): 0.0651 µM
- TGI (SF-539 CNS): 25.2 µM
- GI50 (MDA-MB-468 breast): 0.0199 µM
- TGI (MDA-MB-468 breast): 0.0534 µM
- GI50 (HOP-92 NSCLC): 2.18 µM
- TGI (HOP-92 NSCLC): 17.2 µM
- GI50 (UACC-257 melanoma): 13.7 µM
- TGI (UACC-257 melanoma): 52.6 µM
- GI50 (SN12C renal): 0.0522 µM
- TGI (SN12C renal): 17 µM
- GI50 (RXF 393 renal): 0.0513 µM
- TGI (RXF 393 renal): 7.31 µM
- GI50 (NCI-H23 lung): 1.26 µM
- TGI (NCI-H23 lung): 14.9 µM
- GI50 (DU-145 prostate): 10.6 µM
- TGI (DU-145 prostate): 26.6 µM
- GI50 (OVCAR-5 ovarian): 4.4 µM
- TGI (OVCAR-5 ovarian): 30.3 µM
- GI50 (OVCAR-4 ovarian): 9.41 µM
- TGI (OVCAR-4 ovarian): 50.4 µM
- GI50 (HCT-15 colon): 0.0581 µM
- TGI (HCT-15 colon): 37.2 µM
- GI50 (NCI/ADR-RES ovarian): 0.369 µM
- TGI (NCI/ADR-RES ovarian): 31.4 µM
- GI50 (MALME-3M melanoma): 17.9 µM
- TGI (MALME-3M melanoma): 60.7 µM
- GI50 (KM12 colon): 0.0838 µM
- TGI (KM12 colon): > 100 µM
- GI50 (UACC-62 melanoma): 0.768 µM
- TGI (UACC-62 melanoma): 35.4 µM
- GI50 (SW-620 colon): 0.202 µM
- TGI (SW-620 colon): 28.1 µM
- GI50 (UO-31 renal): 4.32 µM
- TGI (UO-31 renal): 20.7 µM
- GI50 (COLO 205 colon): 0.0376 µM
- TGI (COLO 205 colon): > 100 µM
- GI50 (HS 578T breast): 0.0403 µM
- TGI (HS 578T breast): 12.4 µM
- GI50 (A498 renal): 0.0833 µM
- TGI (A498 renal): 29.6 µM
- GI50 (SF-268 CNS): 0.0113 µM
- TGI (SF-268 CNS): 0.0549 µM
- GI50 (OVCAR-3 ovarian): 0.0915 µM
- TGI (OVCAR-3 ovarian): 14.6 µM
- GI50 (HCC-2998 colon): 3.24 µM
- TGI (HCC-2998 colon): 47.9 µM
- GI50 (OVCAR-8 ovarian): 7.27 µM
- TGI (OVCAR-8 ovarian): 36.9 µM
- GI50 (LOX IMVI melanoma): 0.725 µM
- TGI (LOX IMVI melanoma): 17.8 µM
- GI50 (HCT-116 colon): 0.0293 µM
- TGI (HCT-116 colon): 25.2 µM
- GI50 (TK-10 renal): 4.77 µM
- TGI (TK-10 renal): 21.7 µM
- GI50 (ACHN renal): 1.81 µM
- TGI (ACHN renal): 19.7 µM
- TGI (MOLT-4 leukemia): 0.0209 µM
- GI50 (PC-3 prostate): 12 µM
- TGI (PC-3 prostate): 45.2 µM
- GI50 (BT-549 breast): 0.0986 µM
- TGI (BT-549 breast): 20.1 µM
- GI50 (SNB-75 CNS): 3.1 µM
- TGI (SNB-75 CNS): 17 µM
- GI50 (NCI-H226 lung): 1.28 µM
- TGI (NCI-H226 lung): 10.9 µM
- GI50 (HT29 colon): 1.49 µM
- TGI (HT29 colon): > 100 µM
- GI50 (A549 NSCLC): 0.0795 µM
- TGI (A549 NSCLC): 16.8 µM
- GI50 (HOP-62 NSCLC): 0.179 µM
- TGI (HOP-62 NSCLC): 31.9 µM
- GI50 (SK-OV-3 ovarian): 4.11 µM
- TGI (SK-OV-3 ovarian): 22.6 µM
- GI50 (NCI-H322M lung): 19.3 µM
- TGI (NCI-H322M lung): > 100 µM
